The experiment deals with S. epidermis (ATCC 12228). As to the kind of experiment: Growth of S. epidermidis under aerobic conditions, time-to-detection (BacT/Alert 3D system). It is filed as cell-based, Staphylococcus epidermidis. The following applies: S. epidermidis inoculated at 1000 CFU/mL in standard aerobic bottles; test material in PBS; average of three samples; PBS control = 100. An excerpt:
The ability of four test materials to grow S. epidermis (ATCC 12228) under aerobic conditions was investigated. The materials were: 1) phosphate buffered saline buffer solution (PBS), 2) PBS containing 5% of an aqueous solution containing 0.13 weight percent of an extract of Pichia anomala grown on kiwi, 3) PBS containing 3% glycerol, and 4) PBS containing both 5% of an aqueous solution containing 0.13 weight percent of an extract of Pichia anomala grown on kiwi and 3% glycerol. The BacT/Alert 3D system (BioMerieux Inc.) was used to determine the time-to-detection (“TTD”) of S. epidermidis according to the manufacturer's instruction. S. epidermidis were inoculated at concentrations of 1000 colony-forming units (CFU)/mL into standard aerobic bottles (BioMerieux Inc.). The test materials were prepared in PBS and injected into the standard aerobic bottles at the indicated final concentration with the volume of 1 ml. Standard aerobic bottles inoculated with S. epidermidis only and 10 ml of PBS was used as control. Bottles were then inserted into the BacT/Alert 3D system until stationary growth phase. The TTD values were automatically calculated by the BacT/Alert 3D according to the growth algorism. Three samples were tested for each test material and the resulted were averaged. Relative Time-to-Detection (RTTD) was calculated as (TTD treatment-TTD control)/TTD control*100.

As to `OCC(O)CO` [3% Glycerol, glycerol], the “RTTD (Relative Time-to-Detection)” value came out at 92.56.

The values are drawn from patent US10543240B2, “Topical composition containing glycerin and yeast extract” (Johnson & Johnson Consumer Inc., priority 2016, dated 2020).
